Data taken from patent publication US8288363B2, “Medicaments for anti-herpes virus treatments” (ASE & BIO, priority 2006, dated 2012).

Experiments:
Assay in all cases: Anti-herpes activity, viability of infected vero cells (neutral red)
Details in all cases: incubation time 72 hours
[1] = test system: HSV-1; assay type: cell-based, herpes simplex virus 1
Description: (§1) This method is based on the principle that living cells absorb neutral red, which is a vital stain. The optical density of the medium was measured at the maximum absorption wavelength of neutral red, that is to say 540 nm, using a spectrophotometer (SpectraCount™, microplate photometer, Packard). The optical density at 540 nm is proportional to the number of living cells in an infected culture (McLaren et al., Antiviral Research, 1983; 3: 223-234 and Langlois et al., Standardization, 1986, 14: 201-211).
(§2) The effective concentration (EC 50%), that is to say the concentration of the sulphated polysaccharide which enables infection of 50% of the cells of a culture to be inhibited, was measured for each viral strain.
(§3) The determination of the EC50 was carried out in 96-well microtitre plates in accordance with the following protocol. Vero cells are seeded at a cell density of 3.5·10^4 cells/well in 100 μl of MEM medium containing 8% FCS. For each viral suspension defined by its MOI: • the negative control column was filled with 100 μl of MEM medium with 8% FCS, • the virus control column was filled with 50 μl of viral suspension having the required MOI and with 50 μl of MEM medium with 8% FCS, • the PS3 control column was filled with 50 μl of PS3 having the desired concentration range or with 50 μl of acyclovir (Zovirax 0.05-5 μg/ml • finally, all the other columns were filled successively with 50 μl of PS3 having the required concentration range or with 50 μl of acyclovir (Zovirax 0.05-5 μg/ml) and with 50 μl of the viral suspension having the desired MOI.
(§4) The EC50 corresponding to the concentration which enables the cytopathic effect of the virus to be reduced by 50% was calculated in accordance with the following formula: […]
(§5) The anti-herpes activity of PS3 was evaluated and compared on each viral suspension of HSV-1, HSV-1R, HSV-2 and HSV-2R defined by an MOI of 0.01 ID50/cell for a cell concentration of 350,000 cells/ml, after incubation times of 48 and 72 hours.
(§6) This series of experiments was carried out applying the protocol enabling the EC50 to be determined, as described in Example 3.
(§7) The therapeutic indices (TI) of PS3, as well as three other reference products, that is to say acyclovir, dextran sulphate and phycarine, were determined in parallel for each viral strain.
(§8) The therapeutic index (TI) represents the ratio between the maximum non-toxic dose (or a dose inducing a quantified toxicity) and the dose inducing a favourable pharmacological effect.

[2] = test system: acyclovir-resistant strain HSV-1R; assay type: cell-based, herpes simplex virus 1
Description: as §1, §2, §3, §4, §5, §6, §7, §8

[3] = test system: HSV-2; assay type: cell-based, herpes simplex virus 2
Description: as §1, §2, §3, §4, §5, §6, §7, §8

[4] = test system: acyclovir-resistant strain HSV-2R; assay type: cell-based, herpes simplex virus 2
Description: as §1, §2, §3, §4, §5, §6, §7, §8

In the case of dextran sulphate [reference compound], the “Therapeutic index HSV-1” value [1] is reported as >868, the “Therapeutic index HSV-1R” value [2] is reported as >641 and the “Therapeutic index HSV-2” value [3] is reported as >3,571. For the same substance, the “Therapeutic index HSV-2R” value [4] was >4,545.
